Where “and” joins values, the source holds several entries; their conditions need not be identical. Identical values can stand only once. Like-named read-outs stand apart in the source and are kept apart here.
Legend:
[1] = test system: audiogenic seizure-sensitive juvenile DBA/2J mice; test: Audiogenic seizure-sensitive juvenile DBA/2J mouse model of generalized tonic-clonic seizures; type: in vivo; design: key: 0 none, 1 wild running, 2 clonus, 3 hind-limb tonic extension; conditions: oral gavage, mean ± SEM
Description: Audiogenic Seizure-Sensitive Juvenile DBA/2J Mouse Model of Generalized Tonic-Clonic Seizures
The inbred DBA/2J mouse strain carries an increased general susceptibility for acute generalized convulsive seizures induced by either pharmacological, electrical or, as juvenile, auditory stimuli. At the age of 17 to 28 days (juvenile), they show tonic-clonic convulsions when exposed to a loud tone.
Male juvenile DBA/2J mice (22-24 days old, body weight between 6.6 and 14.5 grams) were used. Each mouse was placed individually in the exposure chamber, an hemispheric acrylic glass dome (diameter: 50 cm) within a sound-attenuated box. After 60 seconds of habituation, an auditory stimulus of mixed frequency tone (15-20 kHz at 110 dB) was played from a speaker placed on the top center of the dome.
The sound-attenuated box was equipped with lights and a camera system in order to observe and record the behavioral seizure response classified as following: • stage 0, no response • stage 1, wild running • stage 2, clonus • stage 3, tonic extension of the hind limbs.
(§1) Different combination efficacy experiments are performed. […] Each experiment consists of four treatment groups: • 1. Vehicle (10% Polyethylene glycol400 (PEG400)/90% methylcellulose (0.5% in water; MC0.5%)), 3 h before exposure to the auditory stimulus+vehicle, 1 h before exposure to the auditory stimulus; • 2. COMPOUND 1 (in 10% PEG400/90% MC0.5%), 3 h before exposure to the auditory stimulus+vehicle, 1 h before exposure to the auditory stimulus; • 3. Vehicle, 3 h before exposure to the auditory stimulus+AED (in 10% PEG400/90% MC0.5%), 1 h before exposure to the auditory stimulus; and • 4. COMPOUND 1 (in 10% PEG400/90% MC0.5%), 3 h before exposure to the auditory stimulus+AED (in 10% PEG400/90% MC0.5%), 1 h before exposure to the auditory stimulus.

[2] = Plasma and brain concentrations of drugs at the end of the audiogenic seizure experiment (LC-MS); type: in vivo, mouse; conditions: for plasma and brain concentrations after administration of the compounds alone or in combination: juvenile DBA/2J mice; for concentration at 1 h: DBA/2J, mouse, oral
Protocol: Briefly, blood was sampled from the vena cava caudalis with a syringe pre-filled with EDTA (ethylenediamine tetraacetic acid) as anticoagulant and centrifuged to yield plasma (for 10 minutes, at 4° C. and 5000 rpm (rounds per minute)). Brain was sampled and homogenized into one volume of cold phosphate buffer (pH 7.4). Following extraction with methanol, concentrations of the compound in plasma and brain were determined using liquid chromatography coupled to mass spectrometry.
as §1

[3] = analyte LTG, vehicle 3 h + LTG 10 mg/kg 1 h before stimulus, oral gavage, mean ± SEM

CC[C@@H](C(N)=O)N1CCCC1=O [LEV, (S)-2-(2-oxopyrrolidin-1-yl)butanamide]
Seizure stage (maximal seizure stage observed during exposure to auditory stimulus) ([1]; vehicle 3 h + LEV 1 mg/kg 1 h before stimulus): 3.0 ± 0.0
Seizure stage (maximal seizure stage observed during exposure to auditory stimulus) ([1]; vehicle 3 h + LEV 1 mg/kg 1 h before stimulus, listed as levetiracetam): 3
Seizure stage (maximal seizure stage observed during exposure to auditory stimulus) ([1]; vehicle 3 h + LEV 3 mg/kg 1 h before stimulus): 2.1 ± 0.4 and 2.6 ± 0.3
plasma and brain concentrations after administration of the compounds alone or in combination ([2]; COMPOUND 1 and LEV): similar
concentration at 1 h ([2]; brain, 1 mg/kg, analyte LEV, vehicle 3 h + LEV 1 mg/kg 1 h before stimulus, oral gavage, mean ± SEM, read-out: Brain concentration total): 224 ± 20 ng/g
concentration at 1 h ([2]; brain, 3 mg/kg, analyte LEV, vehicle 3 h + LEV 3 mg/kg 1 h before stimulus, oral gavage, mean ± SEM, read-out: Brain concentration total): 677 ± 70 ng/g
concentration at 1 h ([2]; brain, 10 mg/kg, analyte LEV, vehicle 3 h + LEV 10 mg/kg 1 h before stimulus, oral gavage, mean ± SEM, read-out: Brain concentration total): 2130 ± 267 ng/g
concentration at 1 h ([2]; brain, 50 mg/kg, analyte LEV, vehicle 3 h + LEV 50 mg/kg 1 h before stimulus, oral gavage, mean ± SEM, read-out: Brain concentration total): 11100 ± 886 ng/g
concentration at 1 h ([2]; brain, analyte LEV, COMPOUND 1 10 mg/kg 3 h + LEV 1 mg/kg 1 h before stimulus, oral gavage, mean ± SEM, read-out: Brain concentration total): 310 ± 34 ng/g
concentration at 1 h ([2]; brain, analyte LEV, COMPOUND 1 10 mg/kg 3 h + LEV 3 mg/kg 1 h before stimulus, oral gavage, mean ± SEM, read-out: Brain concentration total): 787 ± 39 ng/g
concentration at 1 h ([2]; brain, analyte LEV, COMPOUND 1 10 mg/kg 3 h + LEV 10 mg/kg 1 h before stimulus, oral gavage, mean ± SEM, read-out: Brain concentration total): 2590 ± 169 ng/g
concentration at 1 h ([2]; brain, analyte LEV, COMPOUND 1 10 mg/kg 3 h + LEV 50 mg/kg 1 h before stimulus, oral gavage, mean ± SEM, read-out: Brain concentration total): 12600 ± 549 ng/g
concentration at 1 h ([2]; brain, analyte LEV, COMPOUND 1 30 mg/kg 3 h + LEV 3 mg/kg 1 h before stimulus, oral gavage, mean ± SEM, read-out: Brain concentration total): 714 ± 59 ng/g
concentration at 1 h ([2]; brain, analyte LEV, COMPOUND 1 30 mg/kg 3 h + LEV 10 mg/kg 1 h before stimulus, oral gavage, mean ± SEM, read-out: Brain concentration total): 2150 ± 142 ng/g
concentration at 1 h ([2]; brain, analyte LEV, COMPOUND 1 30 mg/kg 3 h + LEV 50 mg/kg 1 h before stimulus, oral gavage, mean ± SEM, read-out: Brain concentration total): 13500 ± 1380 ng/g
concentration at 1 h ([2]; plasma, 1 mg/kg, analyte LEV, vehicle 3 h + LEV 1 mg/kg 1 h before stimulus, oral gavage, mean ± SEM, read-out: Plasma concentration total): 541 ± 48 ng/mL
concentration at 1 h ([2]; plasma, 3 mg/kg, analyte LEV, vehicle 3 h + LEV 3 mg/kg 1 h before stimulus, oral gavage, mean ± SEM, read-out: Plasma concentration total): 1170 ± 53 ng/mL
concentration at 1 h ([2]; plasma, 10 mg/kg, analyte LEV, vehicle 3 h + LEV 10 mg/kg 1 h before stimulus, oral gavage, mean ± SEM, read-out: Plasma concentration total): 4530 ± 473 ng/mL
concentration at 1 h ([2]; plasma, 50 mg/kg, analyte LEV, vehicle 3 h + LEV 50 mg/kg 1 h before stimulus, oral gavage, mean ± SEM, read-out: Plasma concentration total): 26500 ± 2810 ng/mL
concentration at 1 h ([2]; plasma, analyte LEV, COMPOUND 1 10 mg/kg 3 h + LEV 1 mg/kg 1 h before stimulus, oral gavage, mean ± SEM, read-out: Plasma concentration total): 564 ± 42 ng/mL
concentration at 1 h ([2]; plasma, analyte LEV, COMPOUND 1 10 mg/kg 3 h + LEV 3 mg/kg 1 h before stimulus, oral gavage, mean ± SEM, read-out: Plasma concentration total): 1250 ± 53 ng/mL
concentration at 1 h ([2]; plasma, analyte LEV, COMPOUND 1 10 mg/kg 3 h + LEV 10 mg/kg 1 h before stimulus, oral gavage, mean ± SEM, read-out: Plasma concentration total): 5780 ± 232 ng/mL
concentration at 1 h ([2]; plasma, analyte LEV, COMPOUND 1 10 mg/kg 3 h + LEV 50 mg/kg 1 h before stimulus, oral gavage, mean ± SEM, read-out: Plasma concentration total): 27000 ± 1350 ng/mL
concentration at 1 h ([2]; plasma, analyte LEV, COMPOUND 1 30 mg/kg 3 h + LEV 3 mg/kg 1 h before stimulus, oral gavage, mean ± SEM, read-out: Plasma concentration total): 1230 ± 64 ng/mL
concentration at 1 h ([2]; plasma, analyte LEV, COMPOUND 1 30 mg/kg 3 h + LEV 10 mg/kg 1 h before stimulus, oral gavage, mean ± SEM, read-out: Plasma concentration total): 3880 ± 226 ng/mL
concentration at 1 h ([2]; plasma, analyte LEV, COMPOUND 1 30 mg/kg 3 h + LEV 50 mg/kg 1 h before stimulus, oral gavage, mean ± SEM, read-out: Plasma concentration total): 26200 ± 2400 ng/mL
Brain concentration total ([2]; analyte LEV, vehicle 3 h + LEV 3 mg/kg 1 h before stimulus, oral gavage, mean ± SEM): 675 ± 82 ng/g
Brain concentration total ([2]; analyte LEV, vehicle 3 h + LEV 10 mg/kg 1 h before stimulus, oral gavage, mean ± SEM): 2307 ± 207 ng/g
Brain concentration total ([2]; analyte LEV, vehicle 3 h + LEV 50 mg/kg 1 h before stimulus, oral gavage, mean ± SEM): 11318 ± 1440 ng/g

Nc1nnc(-c2cccc(Cl)c2Cl)c(N)n1 [LTG, 6-(2,3-dichlorophenyl)-1,2,4-triazine-3,5-diamine]
Seizure stage (maximal seizure stage observed during exposure to auditory stimulus) ([1]; vehicle 3 h + LTG 3 mg/kg 1 h before stimulus): 1.9 ± 0.2
Seizure stage (maximal seizure stage observed during exposure to auditory stimulus) ([1]; vehicle 3 h + LTG 3 mg/kg 1 h before stimulus, listed as lamotrigine): 2
Seizure stage (maximal seizure stage observed during exposure to auditory stimulus) ([1]; vehicle 3 h + LTG 30 mg/kg 1 h before stimulus): 0.2 ± 0.2 #
plasma and brain concentrations after administration of the compounds alone or in combination ([2]; COMPOUND 1 and lamotrigine): similar
concentration at 1 h ([2]; brain, 3 mg/kg, analyte LTG, vehicle 3 h + LTG 3 mg/kg 1 h before stimulus, oral gavage, mean ± SEM, read-out: Brain concentration total): 1490 ± 128 ng/g
concentration at 1 h ([2]; brain, 10 mg/kg, analyte LTG, vehicle 3 h + LTG 10 mg/kg 1 h before stimulus, oral gavage, mean ± SEM, read-out: Brain concentration total): 3260 ± 144 ng/g
concentration at 1 h ([2]; brain, 30 mg/kg, analyte LTG, vehicle 3 h + LTG 30 mg/kg 1 h before stimulus, oral gavage, mean ± SEM, read-out: Brain concentration total): 8890 ± 248 ng/g
concentration at 1 h ([2]; brain, analyte LTG, COMPOUND 1 10 mg/kg 3 h + LTG 10 mg/kg 1 h before stimulus, oral gavage, mean ± SEM, read-out: Brain concentration total): 3690 ± 393 ng/g
concentration at 1 h ([2]; brain, analyte LTG, COMPOUND 1 30 mg/kg 3 h + LTG 3 mg/kg 1 h before stimulus, oral gavage, mean ± SEM, read-out: Brain concentration total): 1370 ± 100 ng/g
concentration at 1 h ([2]; brain, analyte LTG, COMPOUND 1 30 mg/kg 3 h + LTG 10 mg/kg 1 h before stimulus, oral gavage, mean ± SEM, read-out: Brain concentration total): 3660 ± 310 ng/g
concentration at 1 h ([2]; brain, analyte LTG, COMPOUND 1 30 mg/kg 3 h + LTG 30 mg/kg 1 h before stimulus, oral gavage, mean ± SEM, read-out: Brain concentration total): 8560 ± 853 ng/g
concentration at 1 h ([2]; plasma, 3 mg/kg, analyte LTG, vehicle 3 h + LTG 3 mg/kg 1 h before stimulus, oral gavage, mean ± SEM, read-out: Plasma concentration total): 293 ± 27 ng/mL
concentration at 1 h ([2]; plasma, 10 mg/kg, analyte LTG, vehicle 3 h + LTG 10 mg/kg 1 h before stimulus, oral gavage, mean ± SEM, read-out: Plasma concentration total): 930 ± 77 ng/mL
concentration at 1 h ([2]; plasma, 30 mg/kg, analyte LTG, vehicle 3 h + LTG 30 mg/kg 1 h before stimulus, oral gavage, mean ± SEM, read-out: Plasma concentration total): 3560 ± 165 ng/mL
concentration at 1 h ([2]; plasma, analyte LTG, COMPOUND 1 10 mg/kg 3 h + LTG 10 mg/kg 1 h before stimulus, oral gavage, mean ± SEM, read-out: Plasma concentration total): 859 ± 101 ng/mL
concentration at 1 h ([2]; plasma, analyte LTG, COMPOUND 1 30 mg/kg 3 h + LTG 3 mg/kg 1 h before stimulus, oral gavage, mean ± SEM, read-out: Plasma concentration total): 284 ± 18 ng/mL
concentration at 1 h ([2]; plasma, analyte LTG, COMPOUND 1 30 mg/kg 3 h + LTG 10 mg/kg 1 h before stimulus, oral gavage, mean ± SEM, read-out: Plasma concentration total): 1330 ± 102 ng/mL
concentration at 1 h ([2]; plasma, analyte LTG, COMPOUND 1 30 mg/kg 3 h + LTG 30 mg/kg 1 h before stimulus, oral gavage, mean ± SEM, read-out: Plasma concentration total): 2800 ± 475 ng/mL
Brain concentration total [2, 3]: 4054 ± 323 ng/g
Plasma concentration total [2, 3]: 1203 ± 77 ng/mL

Source: patent US11213517B2, “Pharmaceutical combination comprising a T-type calcium channel blocker” (IDORSIA PHARMACEUTICALS LTD, priority 2016, dated 2022)
